Where a name gives a salt, the structure may show the parent alone.

The experiment deals with T1, epithelial sodium channel (ENaC) (Homo sapiens, UniProt P37088+P51168+P51170).
T1 construct: host or cells: primary human bronchial epithelial cells (HBECs), differentiated at the air-liquid interface
T1 sequence (P37088 1-669): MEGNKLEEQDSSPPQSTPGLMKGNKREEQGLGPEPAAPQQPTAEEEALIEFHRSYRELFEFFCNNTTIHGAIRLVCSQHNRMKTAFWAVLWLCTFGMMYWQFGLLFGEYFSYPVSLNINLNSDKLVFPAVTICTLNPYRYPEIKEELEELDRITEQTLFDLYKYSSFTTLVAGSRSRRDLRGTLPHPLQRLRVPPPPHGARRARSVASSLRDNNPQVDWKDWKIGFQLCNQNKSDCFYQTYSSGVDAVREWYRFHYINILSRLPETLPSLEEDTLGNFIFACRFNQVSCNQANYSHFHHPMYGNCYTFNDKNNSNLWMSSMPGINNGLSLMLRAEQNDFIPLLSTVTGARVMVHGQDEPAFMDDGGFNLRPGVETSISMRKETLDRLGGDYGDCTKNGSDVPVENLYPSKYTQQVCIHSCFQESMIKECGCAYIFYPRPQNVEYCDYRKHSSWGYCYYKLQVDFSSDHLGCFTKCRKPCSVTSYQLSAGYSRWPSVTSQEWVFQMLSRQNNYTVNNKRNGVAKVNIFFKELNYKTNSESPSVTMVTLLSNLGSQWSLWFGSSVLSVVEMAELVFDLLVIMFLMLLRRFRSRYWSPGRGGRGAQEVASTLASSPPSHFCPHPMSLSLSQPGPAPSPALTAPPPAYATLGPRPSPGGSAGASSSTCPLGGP
T1 sequence (P51168 1-640): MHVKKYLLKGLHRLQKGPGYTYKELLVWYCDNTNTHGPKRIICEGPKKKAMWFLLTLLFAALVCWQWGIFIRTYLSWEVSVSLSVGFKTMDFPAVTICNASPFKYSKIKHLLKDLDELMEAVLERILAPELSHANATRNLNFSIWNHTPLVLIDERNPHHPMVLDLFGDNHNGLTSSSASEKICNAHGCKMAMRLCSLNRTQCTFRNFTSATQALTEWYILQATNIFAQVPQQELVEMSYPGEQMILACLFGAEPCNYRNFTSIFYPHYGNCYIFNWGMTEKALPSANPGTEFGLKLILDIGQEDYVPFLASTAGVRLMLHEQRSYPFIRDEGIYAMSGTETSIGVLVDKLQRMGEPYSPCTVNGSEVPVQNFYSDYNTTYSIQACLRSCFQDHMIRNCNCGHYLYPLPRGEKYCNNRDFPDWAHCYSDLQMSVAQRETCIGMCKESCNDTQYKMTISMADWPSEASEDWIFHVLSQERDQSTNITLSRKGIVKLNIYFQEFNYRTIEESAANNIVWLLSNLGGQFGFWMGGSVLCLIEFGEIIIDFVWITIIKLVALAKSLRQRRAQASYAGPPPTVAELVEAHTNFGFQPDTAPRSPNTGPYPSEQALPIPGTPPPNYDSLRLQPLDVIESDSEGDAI
T1 sequence (P51170 1-649): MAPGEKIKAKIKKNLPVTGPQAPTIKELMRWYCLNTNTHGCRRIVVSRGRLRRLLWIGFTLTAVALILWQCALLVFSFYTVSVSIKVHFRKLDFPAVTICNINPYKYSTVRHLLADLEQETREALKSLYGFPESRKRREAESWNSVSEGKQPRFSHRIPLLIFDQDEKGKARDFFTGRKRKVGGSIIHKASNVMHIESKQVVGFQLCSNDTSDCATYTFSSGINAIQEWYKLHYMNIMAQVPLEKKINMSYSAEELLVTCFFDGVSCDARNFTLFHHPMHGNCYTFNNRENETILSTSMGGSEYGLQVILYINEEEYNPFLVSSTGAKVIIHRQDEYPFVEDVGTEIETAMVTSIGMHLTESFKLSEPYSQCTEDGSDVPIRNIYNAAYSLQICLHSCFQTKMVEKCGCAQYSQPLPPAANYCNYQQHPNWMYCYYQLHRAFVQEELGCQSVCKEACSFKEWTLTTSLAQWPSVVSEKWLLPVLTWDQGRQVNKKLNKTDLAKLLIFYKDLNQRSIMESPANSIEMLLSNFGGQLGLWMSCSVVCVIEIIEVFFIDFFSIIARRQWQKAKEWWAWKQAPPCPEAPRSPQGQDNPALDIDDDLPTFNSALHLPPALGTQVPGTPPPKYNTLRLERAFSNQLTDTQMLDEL
In words: Short circuit current (ISC) measurements in human bronchial epithelial cells, inhibition of amiloride-sensitive ISC. It counts as cell-based. To be noted: inhibition of the amiloride-sensitive ISC; HBECs cultured at air-liquid interface, Ussing chamber, compound added to apical chamber. The protocol: Compounds of formula (I), hereinafter referred to alternatively as “agents of the invention”, are useful as pharmaceuticals. In particular, the compounds have good ENaC blocker activity and may be tested in the following assays.
Human Bronchial Epithelial cells (HBECs) (Cambrex) were cultured under air-liquid interface conditions to provide a well differentiated mucociliary phenotype.
HBECs were cultured using a modification of the method described by Gray and colleagues (Gray et al., 1996). Cells were seeded in plastic T-162 flasks and were grown in bronchial epithelial cell growth medium (BEGM; Cambrex) supplemented with bovine pituitary extract (52 μg/mL), hydrocortisone (0.5 μg/mL), human recombinant epidermal growth factor (0.5 ng/mL), epinephrine (0.5 μg/mL), transferrin (10 μg/mL), insulin (5 μg/mL), retinoic acid (0.1 μg/mL), triiodothyronine ([…]), gentamycin (50 μg/mL) and amphotericin B (50 ng/mL). Medium was changed every 48 hours until cells were 90% confluent. Cells were then passaged and seeded (8.25×10^5 cells/insert) on polycarbonate Snapwell inserts (Costar) in differentiation media containing 50% DMEM in BEGM with the same supplements as above but without triiodothyronine and a final retinoic acid concentration of 50 nM (all-trans retinoic acid). Cells were maintained submerged for the first 7 days in culture, after which time they were exposed to an apical air interface for the remainder of the culture period. At this time, media was changed to DMEM:F12 media containing 2% v/v Ultroser G for the remainder of culture. Amphotericin B was removed from all media 3 feeds prior to use in the Ussing Chambers. Cells were used between days 7 and 21 after establishment of the apical-air interface. At all stages of culture, cells were maintained at 37° C. in 5% CO2 in an air incubator.
Snapwell inserts were mounted in Vertical Diffusion Chambers (Costar) and were bathed with continuously gassed Ringer solution (5% CO2 in O2; pH 7.4) maintained at 37° C. containing (in mM): 120 NaCl, 25 NaHCO3, 3.3 KH2PO4, 0.8 K2HPO4, 1.2 CaCl2, 1.2 MgCl2, and 10 glucose. The solution osmolarity was between 280 and 300 mOsmol/kg H2O for all physiological salt solutions used. Cells were voltage clamped to 0 mV (model EVC4000; WPI). RT was measured by applying a 1- or 2-mV pulse at 30-s intervals and calculating RT by Ohm's law. Data were recorded using a PowerLab workstation (ADInstruments).
Test compounds were prepared as a 10 mM stock solution in DMSO (95%). Serial 3-fold dilutions were freshly prepared in an appropriate vehicle (distilled H2O or Ringers solution). The initial concentration was added to the apical chamber as a 1000× concentrate in 5 μL, resulting in a final 1× concentration the 5 mL volume of the Ussing chamber. Subsequent additions of compound were added in a 3.3 μL volume of the 1000× serially diluted stock solution. At the completion of the concentration-response experiment, amiloride (10 μM) was added into the apical chamber to enable the total amiloride-sensitive current to be measured. An amiloride control IC50 was established at the start of each experiment.
Results are expressed as the mean % inhibition of the amiloride-sensitive ISC. Concentration-response curves were plotted and IC50 values generated using GraphPad Prism 3.02. Cell inserts were typically run in duplicate and the IC50 calculated on the mean % inhibition data.
The term IC50 denotes the concentration at which inhibition is half-maximal. Lower therefore signals greater potency in that assay. In turn, `C[N+](C)(CCCCCNS(=O)(=O)c1ccc(Cl)cc1)CCNC(=O)c1nc(Cl)c(N)nc1N` [Example 94, [5-(4-Chloro-benzenesulfonylamino)-pentyl]-{2-[(3,5-diamino-6-chloro-pyrazine-2-carbonyl)-amino]-ethyl}-dimethyl-ammonium bromide] gave an IC50 of 0.25 µM. As for `C[N+](C)(CCCCNS(=O)(=O)c1ccc(Cl)cc1)CCNC(=O)c1nc(Cl)c(N)nc1N` [Example 100, [4-(4-Chloro-benzenesulfonylamino)-butyl]-{2-[(3,5-diamino-6-chloro-pyrazine-2-carbonyl)-amino]-ethyl}-dimethyl-ammonium bromide], the figure is 0.29 µM; as for `C[N+](C)(CCNC(=O)c1nc(Cl)c(N)nc1N)CCNS(=O)(=O)Cc1ccc(Cl)cc1` [Example 108, [2-(4-Chloro-phenylmethanesulfonylamino)-ethyl]-{2-[(3,5-diamino-6-chloro-pyrazine-2-carbonyl)-amino]-ethyl}-dimethyl-ammonium bromide], 0.54 µM; as for `CCC[C@@H](CNC(=O)c1nc(Cl)c(N)nc1N)[N+](C)(C)CCCc1ccc(OC)cc1` [Example 120, ((S)-1-{[(3,5-Diamino-6-chloro-pyrazine-2-carbonyl)-amino]-methyl}-butyl)-[3-(4-methoxy-phenyl)-propyl]-dimethyl-ammonium trifluoroacetate], 0.004 µM. As for `CCC[C@@H](CNC(=O)c1nc(Cl)c(N)nc1N)[N+](C)(C)CCCc1ccc(O)cc1` [Example 121, ((S)-1-{[(3,5-Diamino-6-chloro-pyrazine-2-carbonyl)-amino]-methyl}-butyl)-[3-(4-hydroxy-phenyl)-propyl]-dimethyl-ammonium trifluoroacetate], the figure is 0.01 µM; as for `C[N+](CCCc1ccc(O)cc1)(CCCc1ccc(O)cc1)CCNC(=O)c1nc(Cl)c(N)nc1N` [Example 122, {2-[(3,5-Diamino-6-chloro-pyrazine-2-carbonyl)-amino]-ethyl}-bis-[3-(4-hydroxy-phenyl)-propyl]-methyl-ammonium trifluoroacetate], 0.13 µM. Then `CCC[C@@H](CNC(=O)c1nc(Cl)c(N)nc1N)[N+](C)(C)CCCc1ccc(OC[C@@H](O)CO)cc1` [Example 124, ((S)-1-{[(3,5-Diamino-6-chloro-pyrazine-2-carbonyl)-amino]-methyl}-butyl)-{3-[4-((S)-2,3-dihydroxy-propoxy)-phenyl]-propyl}-dimethyl-ammonium trifluoroacetate], with 0.025 µM; and `C[N+](CCCc1ccc(OCC(O)CO)cc1)(CCCc1ccc(OCC(O)CO)cc1)CCNC(=O)c1nc(Cl)c(N)nc1N` (stereo not shown) [Example 125, {2-[(3,5-Diamino-6-chloro-pyrazine-2-carbonyl)-amino]-ethyl}-bis-{3-[4-(2,3-dihydroxy-propoxy)-phenyl]-propyl}-methyl-ammonium trifluoroacetate], with 0.24 µM; and `C[N+](C)(CCCc1ccc(OCC(O)CO)cc1)CCNC(=O)c1nc(Cl)c(N)nc1N` (stereo not shown) [Example 126, {2-[(3,5-Diamino-6-chloro-pyrazine-2-carbonyl)-amino]-ethyl}-{3-[4-(2,3-dihydroxy-propoxy)-phenyl]-propyl-dimethyl-ammonium trifluoroacetate], with 2.27 µM. `C[N+](C)(CCNC(=O)c1nc(Cl)c(N)nc1N)CCc1ccccc1` [Example 129, {2-[(3,5-Diamino-6-chloro-pyrazine-2-carbonyl)-amino]-ethyl}-dimethyl-phenethyl-ammonium trifluoroacetate]: the IC50 is 1.14 µM.

Molecule `C[N+](C)(C)CCNC(=O)c1nc(Cl)c(N)nc1N` [Example 130, {2-[(3,5-Diamino-6-chloro-pyrazine-2-carbonyl)-amino]-ethyl}-trimethyl-ammonium iodide] came in with an IC50 of 5.81 µM. Then `COC(=O)COc1ccc(CCC[N+](C)(C)CCNC(=O)c2nc(Cl)c(N)nc2N)cc1` [Example 132, {2-[(3,5-Diamino-6-chloro-pyrazine-2-carbonyl)-amino]-ethyl}-[3-(4-methoxycarbonylmethoxy-phenyl)-propyl]-dimethyl-ammonium trifluoroacetate], with 1.49 µM; and `C[N+](C)(CCCc1ccc(OCC(=O)O)cc1)CCNC(=O)c1nc(Cl)c(N)nc1N` [Example 133, [3-(4-Carboxymethoxy-phenyl)-propyl]-{2-[(3,5-diamino-6-chloro-pyrazine-2-carbonyl)-amino]-ethyl}-dimethyl-ammonium trifluoroacetate], with 6.52 µM.

The values are drawn from US8236808B2, “Pyrazine derivatives as ENAC blockers” (Novartis AG, priority 2008, dated 2012).
